Reference: patent US20250361274A1, “PEPTIDE AND PEPTIDE-CONTAINING AGENT” (PEPTIDREAM INC., priority 2022, published 2025)
“Also recorded” adds a separate entry of the source. Numbered stars: 1 amine (or outer) side, 2 acyl side, 3 side chain; on linkers, the order of the positions; unused ones are H or OH. Bridge positions count the residues as written; N and C are the ends. Square brackets hold non-standard residues; d marks the D form. Peptide text beside a SMILES is read from it. ξ: configuration not given here. X2 = O=C(C[C@@H](Cc1ccc(-c2ccccc2)cc1)C(=O)[*:2])[C@@H]1CCCN1[*:1]; Phe(4-COOH) = N[C@@H](Cc1ccc(C(=O)O)cc1)C(=O)O; Bip = N[C@@H](Cc1ccc(-c2ccccc2)cc1)C(=O)O; Nle(6-COOH) = N[C@@H](CCCCC(=O)O)C(=O)O; X1 = N=C(CN)NCCC[C@H](N[*:1])C(=O)[*:2]; Ala(4-THP) = N[C@@H](CC1CCOCC1)C(=O)O; ξE = NC(CCC(=O)O)C(=O)O; βAla = NCCC(=O)O

Legend:
Format in all cases: cell-based
BMP7 = target: T1, BMP7 (Homo sapiens, UniProt P18075); assay: BMP7 signal transduction inhibitory activity: SMAD1 phosphorylation by BMP7 stimulus, A549 cells
T1 sequence (P18075 293-431): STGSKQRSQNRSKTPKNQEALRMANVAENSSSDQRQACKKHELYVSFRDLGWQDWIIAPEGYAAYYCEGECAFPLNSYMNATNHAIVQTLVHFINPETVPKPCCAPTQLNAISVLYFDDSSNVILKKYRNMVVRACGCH
In short: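 Inhibition is read as reduced BMP7-driven SMAD1 phosphorylation in human A549 cells, with the BMP7 stimulus at 10 nM. Three-point peptide concentrations spanned 1–1,000 nM depending on the peptide series. Some peptides received eight-point, 1/3-ratio titrations from 100 nM or 1,000 nM, alongside a Noggin control.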

BMP6 = target: T2, BMP6 (Homo sapiens, UniProt P22004); assay: BMP family signal transduction inhibition (SMAD1 phosphorylation), BMP6 stimulus
T2 sequence (P22004 375-513): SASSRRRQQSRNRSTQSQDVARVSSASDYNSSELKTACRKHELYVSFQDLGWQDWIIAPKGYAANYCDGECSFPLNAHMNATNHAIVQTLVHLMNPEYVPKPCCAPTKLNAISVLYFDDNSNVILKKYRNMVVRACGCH
Source text: (§1) In the present Example, BMP4 signal transduction inhibition peptide No. 177, peptide No. 29986 (SEQ ID NO: 277 (Example 8)), and peptide SEQ ID NO: 417 (Example 6) synthesized in Example 2, Example 8, and Example 6 were verified in the same manner as in Example 13 in order to confirm presence or absence of signal transduction inhibitory activities obtained by BMPs 2, 5, 6, 9, 12, and 14 belonging to the respective BMP families.
(§2) Regarding the concentrations of the respective BMPs in the evaluation, 0.3 nM of BMP2, 2 nM of BMP5, 3 nM of BMP6, 10 nM of BMP9 and BMP12, and 0.6 nM of BMP14 were added, followed by application of stimulus.
(§3) Regarding No. 177, the concentrations of the peptides were as follows. Specifically, eight concentrations of the peptides were used at a common ratio of 1/3 starting from 10 nM (BMP2), starting from 200 nM (BMP5), starting from 100 nM (BMP6), starting from 1,000 nM (BMP9 and BMP12), and starting from 60 nM (BMP14). The evaluation was performed in the same manner as in Example 11 except for the above points. Note that recombinant Human Noggin Protein (R&D) as a positive control was used at the same concentration as the peptide.
(§4) Regarding the peptide SEQ ID NO: 277 (Example 8), the concentrations of the peptides were as follows. […]

BMP5 = target: T3, BMP5 (Homo sapiens, UniProt P22003); assay: BMP family signal transduction inhibition (SMAD1 phosphorylation), BMP5 stimulus
T3 sequence (P22003 317-454): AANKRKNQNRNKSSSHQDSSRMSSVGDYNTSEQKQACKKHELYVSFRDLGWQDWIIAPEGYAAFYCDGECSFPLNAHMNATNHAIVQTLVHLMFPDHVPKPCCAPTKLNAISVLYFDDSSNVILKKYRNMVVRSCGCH
Source text: as §1, §2, §3, §4

Compound: CC(C)[C@@H]1NC(=O)[C@H](CCCNC(=N)N)NC(=O)[C@H](CCCCC(=O)O)NC(=O)CSC[C@@H](C(=O)NCCC(=O)NC(CCC(=O)O)C(=O)O)NC(=O)[C@H](CO)NC(=O)[C@H](Cc2ccc(C(=O)O)cc2)NC(=O)[C@H](Cc2ccc(C(=O)O)cc2)NC(=O)[C@H](Cc2ccc(O)cc2)NC(=O)[C@H](Cc2ccc(-c3ccccc3)cc2)CC(=O)[C@@H]2CCCN2C(=O)[C@H](Cc2ccc(O)cc2)NC(=O)[C@@H]2CCCN2C(=O)[C@H](Cc2ccc(-c3ccccc3)cc2)NC(=O)[C@H](CCCNC(=N)CN)NC(=O)[C@H](CC(=O)O)NC(=O)[C@H](CC2CCOCC2)NC(=O)[C@H](Cc2ccc(C(=O)O)cc2)NC1=O (stereo partly drawn) [SEQ ID No. 177] ({CH2CO}-[Nle(6-COOH)]RV[Phe(4-COOH)][Ala(4-THP)]D[X1][Bip]PY[X2]Y[Phe(4-COOH)][Phe(4-COOH)]SC[βAla][ξE]-OH; thioether N-16)
- BMP7 inhibitory activity (in words) (BMP7): same level of the BMP7 inhibitory activity as Noggin; also recorded: signal transduction inhibitory activities of BMP4 and BMP7
- BMP6 signal transduction inhibitory activity (in words) (BMP6): signal transduction inhibitory activities of BMP2, BMP5, and BMP6
- BMP5 signal transduction inhibitory activity (in words) (BMP5): signal transduction inhibitory activities of BMP2, BMP5, and BMP6
